In the NIST ThermoML archive (doi:10.1016/j.jct.2005.09.003):
Numbers after ± are expanded uncertainties.

Test: xn = mol fraction of the nth substance listed
Conditions: Liquid

CCCCCCCl [1-chlorohexane] + CCCCCCCC
mass density [kg/m3]
Conditions | x2 = 0 | x2 = 0.1016 | x2 = 0.1996 | x2 = 0.3153 | x2 = 0.3948 | x2 = 0.4862 | x2 = 0.5938 | x2 = 0.6966 | x2 = 0.794 | x2 = 0.9001
298.15 K, 39620 kPa | – | – | – | – | – | – | – | – | – | 741.83 ± 2.1
308.15 K, 100 kPa | 863.99 ± 0.45 | 843.29 ± 0.46 | 824.06 ± 0.47 | 802.22 ± 0.49 | 787.75 ± 0.5 | 771.63 ± 0.52 | 753.33 ± 0.54 | 736.52 ± 0.57 | 721.15 ± 0.59 | 705.03 ± 0.61
308.15 K, 2130 kPa | 865.56 ± 0.48 | 845 ± 0.5 | 825.77 ± 0.52 | 803.94 ± 0.54 | 789.46 ± 0.56 | 773.39 ± 0.59 | 755.1 ± 0.62 | 738.36 ± 0.65 | 722.94 ± 0.67 | 706.75 ± 0.7
308.15 K, 4150 kPa | 867.35 ± 0.51 | 846.81 ± 0.53 | 827.59 ± 0.56 | 805.76 ± 0.6 | 791.31 ± 0.62 | 775.22 ± 0.65 | 756.95 ± 0.69 | 740.19 ± 0.72 | 724.76 ± 0.75 | 708.57 ± 0.79
308.15 K, 6180 kPa | 869.15 ± 0.53 | 848.61 ± 0.56 | 829.39 ± 0.6 | 807.57 ± 0.65 | 793.1 ± 0.68 | 777.03 ± 0.71 | 758.74 ± 0.76 | 742 ± 0.79 | 726.58 ± 0.83 | 710.37 ± 0.87
308.15 K, 8210 kPa | 870.9 ± 0.56 | 850.37 ± 0.6 | 831.16 ± 0.65 | 809.34 ± 0.7 | 794.85 ± 0.74 | 778.81 ± 0.78 | 760.51 ± 0.82 | 743.77 ± 0.87 | 728.34 ± 0.91 | 712.11 ± 0.95
308.15 K, 10230 kPa | 872.61 ± 0.59 | 852.08 ± 0.64 | 832.88 ± 0.69 | 811.05 ± 0.75 | 796.6 ± 0.79 | 780.52 ± 0.84 | 762.22 ± 0.89 | 745.47 ± 0.94 | 730.04 ± 0.99 | 713.8 ± 1
308.15 K, 11250 kPa | 873.47 ± 0.6 | 852.95 ± 0.66 | 833.74 ± 0.71 | 811.91 ± 0.78 | 797.46 ± 0.82 | 781.38 ± 0.87 | 763.1 ± 0.92 | 746.33 ± 0.98 | 730.91 ± 1 | 714.66 ± 1.1
308.15 K, 12260 kPa | 874.3 ± 0.62 | 853.78 ± 0.68 | 834.58 ± 0.73 | 812.74 ± 0.8 | 798.31 ± 0.85 | 782.22 ± 0.9 | 763.93 ± 0.96 | 747.17 ± 1 | 731.72 ± 1.1 | 715.48 ± 1.1
308.15 K, 14290 kPa | 875.96 ± 0.65 | 855.47 ± 0.71 | 836.25 ± 0.78 | 814.43 ± 0.85 | 799.98 ± 0.9 | 783.88 ± 0.96 | 765.62 ± 1 | 748.84 ± 1.1 | 733.37 ± 1.1 | 717.14 ± 1.2
308.15 K, 16310 kPa | 877.59 ± 0.68 | 857.09 ± 0.75 | 837.88 ± 0.82 | 816.06 ± 0.9 | 801.61 ± 0.96 | 785.51 ± 1 | 767.22 ± 1.1 | 750.45 ± 1.1 | 735 ± 1.2 | 718.74 ± 1.3
308.15 K, 18340 kPa | 879.2 ± 0.7 | 858.68 ± 0.78 | 839.49 ± 0.86 | 817.66 ± 0.95 | 803.22 ± 1 | 787.12 ± 1.1 | 768.81 ± 1.1 | 752.06 ± 1.2 | 736.58 ± 1.3 | 720.34 ± 1.4
308.15 K, 20370 kPa | 880.78 ± 0.73 | 860.28 ± 0.82 | 841.08 ± 0.9 | 819.25 ± 1 | 804.79 ± 1.1 | 788.69 ± 1.1 | 770.37 ± 1.2 | 753.6 ± 1.3 | 738.13 ± 1.4 | 721.86 ± 1.4
308.15 K, 22390 kPa | 882.35 ± 0.76 | 861.81 ± 0.85 | 842.63 ± 0.94 | 820.79 ± 1 | 806.33 ± 1.1 | 790.24 ± 1.2 | 771.9 ± 1.3 | 755.13 ± 1.4 | 739.65 ± 1.4 | 723.39 ± 1.5
308.15 K, 24420 kPa | 883.86 ± 0.79 | 863.33 ± 0.89 | 844.15 ± 0.98 | 822.3 ± 1.1 | 807.85 ± 1.2 | 791.75 ± 1.2 | 773.44 ± 1.3 | 756.65 ± 1.4 | 741.13 ± 1.5 | 724.85 ± 1.6
308.15 K, 26450 kPa | 885.35 ± 0.81 | 864.85 ± 0.92 | 845.66 ± 1 | 823.79 ± 1.1 | 809.33 ± 1.2 | 793.23 ± 1.3 | 774.9 ± 1.4 | 758.1 ± 1.5 | 742.61 ± 1.6 | 726.31 ± 1.7
308.15 K, 28470 kPa | 886.84 ± 0.84 | 866.32 ± 0.95 | 847.13 ± 1.1 | 825.28 ± 1.2 | 810.81 ± 1.3 | 794.7 ± 1.4 | 776.37 ± 1.5 | 759.57 ± 1.6 | 744.06 ± 1.7 | 727.75 ± 1.8
308.15 K, 29490 kPa | 887.56 ± 0.85 | 867.04 ± 0.97 | 847.84 ± 1.1 | 825.98 ± 1.2 | 811.52 ± 1.3 | 795.4 ± 1.4 | 777.07 ± 1.5 | 760.27 ± 1.6 | 744.75 ± 1.7 | 728.43 ± 1.8
308.15 K, 30500 kPa | 888.21 ± 0.86 | 867.77 ± 0.98 | 848.57 ± 1.1 | 826.72 ± 1.2 | 812.26 ± 1.3 | 796.13 ± 1.4 | 777.79 ± 1.5 | 760.96 ± 1.6 | 745.47 ± 1.7 | 729.14 ± 1.8
308.15 K, 32530 kPa | 889.73 ± 0.89 | 869.2 ± 1 | 850.02 ± 1.1 | 828.15 ± 1.3 | 813.68 ± 1.4 | 797.54 ± 1.5 | 779.17 ± 1.6 | 762.38 ± 1.7 | 746.85 ± 1.8 | 730.54 ± 1.9
308.15 K, 34550 kPa | 891.14 ± 0.91 | 870.61 ± 1 | 851.41 ± 1.2 | 829.56 ± 1.3 | 815.08 ± 1.4 | 798.95 ± 1.5 | 780.59 ± 1.6 | 763.77 ± 1.8 | 748.23 ± 1.9 | 731.86 ± 2
308.15 K, 36580 kPa | 892.52 ± 0.93 | 872.01 ± 1.1 | 852.79 ± 1.2 | 830.94 ± 1.4 | 816.46 ± 1.5 | 800.32 ± 1.6 | 781.95 ± 1.7 | 765.13 ± 1.8 | 749.58 ± 1.9 | 733.19 ± 2
308.15 K, 38600 kPa | 893.9 ± 0.96 | 873.39 ± 1.1 | 854.16 ± 1.2 | 832.28 ± 1.4 | 817.83 ± 1.5 | 801.66 ± 1.6 | 783.3 ± 1.8 | 766.43 ± 1.9 | 750.88 ± 2 | 734.53 ± 2.1
308.15 K, 39620 kPa | 894.55 ± 0.97 | 874.04 ± 1.1 | 854.82 ± 1.3 | 832.94 ± 1.4 | 818.49 ± 1.5 | 802.33 ± 1.7 | 783.95 ± 1.8 | 767.08 ± 1.9 | 751.54 ± 2 | –
